# Assay: Human HepG2 cell viability assay in 384 well format
# Format: toxicity, cell-based
# Parameters: dose 125 nL, time 70.5 hour; concentration not given beside the values
# Settings: HepG2 cells, read-out: Inhibition
row,Compound,cytotoxicity at 70.5 h [%]
1,O=C1CC(c2cccnc2)c2c(c(C(=O)O)cn2-c2cccc(F)c2)N1 (stereo not given),-8.96
2,Cc1n[nH]c2nc(-c3ccccc3O)cc(C(=O)O)c12,13.5
3,Cn1cc(C2SCC(=O)Nc3c2cnn3C(C)(C)C)cn1 (stereo not given),0.666
4,CC(C)(C)n1ncc2c1NC(=O)CSC2c1ccsc1 (stereo not given),-13.1
5,COc1ccccc1CNC(=O)COc1c(C)n(C)ccc1=O,-20.3
6,CC1CC(=O)c2cc(C(=O)N3CCOCC3)c(=O)[nH]c2C1 (stereo not given),-0.268
7,O=C(NCCc1cccc(F)c1)C1(n2cnnn2)CCCCC1,-3.65
8,Cc1nn(C)cc1-c1nn2c(C(F)(F)F)nnc2s1,-9.41
9,CN(C)C(CNc1c(NCc2ccco2)c(=O)c1=O)c1ccccc1 (stereo not given),-8.7
10,CC1CCN(c2ccc(=O)n(CC(=O)N(C)Cc3ccccc3)n2)CC1,16.3
11,O=c1c(NCc2ccccn2)c(NCC(O)CN2CCOCC2)c1=O (stereo not given),-12.9
12,Cc1nn(C2CCS(=O)(=O)C2)c(O)c1Cc1ccc(Br)cc1 (stereo not given),19.3
13,O=C(NC1CCCCC1)c1ccc(Oc2ccc3nncn3n2)cc1,-7.56
14,CC(C)CNC(=O)CNc1c(NCc2ccco2)c(=O)c1=O,0.885
15,Cc1nc(NC(=O)CCN2C(=O)c3ccccc3NC2C(C)C)sc1C (stereo not given),-0.712
16,CC(C)CNc1c(NCc2ccco2)c(=O)c1=O,-11.5
17,COCCn1ccc(=O)c(OCC(=O)Nc2cccc(OC)c2)c1C,13.8
18,COCCn1ccc(=O)c(OCC(=O)Nc2ccc(OC)c(Cl)c2)c1C,-5.11
19,COc1ccc(CNc2c(N3CCN(C(C)=O)CC3)c(=O)c2=O)cc1,-12.5
20,O=c1c(NCCc2ccc(O)cc2)c(NCc2ccco2)c1=O,-4.28
21,COc1cc(OC)cc(-c2noc(C(N)CCSC)n2)c1 (stereo not given),-2.69
22,Cc1c(C(=O)N2CCNC(=O)C2)sc2nc[nH]c(=O)c12,13.4
23,Cc1cccc(C)c1NC(=O)CC(CN1CCN(C)CC1)C(=O)O (stereo not given),-15.8

row,Compound,cytotoxicity at 70.5 h [%]
1,CCCn1[nH]c(CNc2cccc(Cl)c2)nc1=O,-15.4
2,COc1c[nH]c(C(=O)N2CCN(c3ccc(Cl)cc3)CC2)cc1=O,20.3
3,CCn1c(=O)nc(N)c2c(-c3ccc(OC)cc3)csc21,-10.3
4,Cc1nc2sc(C(=O)N3CCNC(=O)C3)c(C)c2c(=O)[nH]1,-4.68
5,Cc1cc(NCc2ccco2)nc2[nH]nc(N)c12,-3.79
6,COCCn1ccc(=O)c(OCC(=O)Nc2ccc(Br)cc2)c1C,-7.36
7,Cc1ccsc1C1CC(=O)Nc2c1cnn2C(C)C (stereo not given),-7.26
8,Cc1ccc(C(=O)Nc2nnc(C3CC3)s2)c(-n2cnnn2)c1C,-14.4
9,O=C(COc1coc(CN2CCCC2)cc1=O)Nc1cc(Cl)ccc1Cl,-7.96
10,COC(=O)c1ccc(C2SC(C)=Nc3c2c(=O)[nH]n3C2CCCC2)cc1 (stereo not given),-14.5
11,O=C(COc1coc(CN2CCCC2)cc1=O)Nc1ccc(Cl)c(Cl)c1,-7.3
12,Cn1ccc2ccc(C(=O)N3CCN(C(=O)OC(C)(C)C)CC3)cc21,3.39
13,NC(=O)c1ccccc1NC(=O)CCN1CCN(CCO)CC1,-10.4
14,CC1=Nc2c(c(=O)[nH]n2C(C)C)C(c2ccc3c(c2)n(C)c(=O)n3C)S1 (stereo not given),-9
15,CC1=Nc2c(c(=O)[nH]n2C(C)C)C(c2ccc3nccnc3c2)S1 (stereo not given),-2.49
16,Cc1nn2cnnc2c(C)c1CCC(=O)Nc1nc2c(s1)CCC2,-13
17,O=C(Nc1cccnc1-n1cc(Br)cn1)C1CCCC1,-25.7
18,COc1coc(C(=O)Nc2nc(-c3ccccn3)cs2)cc1=O,-7.13
19,CC(C)n1ncc2c1NC(=O)CC21C(=O)Nc2c(Br)cc(Cl)cc21 (stereo not given),-14.8
20,COCCCNC(=O)c1cc(-c2ccc(OC)cc2)nn1C,4.27
21,CC(C)n1ncc2c1NC(=O)CC21C(=O)Nc2c(Cl)ccc(Cl)c21 (stereo not given),-12.2
22,CC(C)n1ncc2c1NC(=O)CC21C(=O)Nc2c(Cl)cc(Br)cc21 (stereo not given),-0.17
23,COc1ccc2nnc(CCCC(=O)NCCc3ccccc3)n2n1,-9.61

row,Compound,cytotoxicity at 70.5 h [%]
1,CN1C(=O)COc2cc(NC(=O)CCc3nc4cccnc4[nH]3)ccc21,-11.3
2,COc1ccc2nnc(CCC(=O)NCc3cccn3C)n2n1,-2.62
3,COc1ccc(-c2cc(C(=O)NCCC(C)C)n(C)n2)cc1,4.25
4,CC(C)n1ncc2c1NC(=O)CC21C(=O)Nc2cc(Cl)cc(Cl)c21 (stereo not given),-17.8
5,Cc1cc(C)nc(N2CCCC(C(=O)Nc3n[nH]c(C(C)C)n3)C2)n1 (stereo not given),-7.23
6,O=C(CCCNc1ncccn1)Nc1ccc(Cn2cncn2)cc1,-10.8
7,Cc1nn(-c2ncccn2)c2c1C(c1cnn(C)c1)SCC(=O)N2 (stereo not given),-24.2
8,COC(=O)CNC(=O)c1cn(-c2ccccn2)c(=O)c2ccccc12,-9.1
9,CCNc1cc2c(nn1)CCN(C(=O)Cc1ccc(C)s1)C2,0.997
10,Cc1cnn(CCC(=O)NC2CCc3nc(C)cn3C2)c1 (stereo not given),-3.94
11,O=C(CCCn1cncn1)NC1CCc2nccn2C1 (stereo not given),-0.0953
12,CCc1cnc(CN(C(C)=O)C2CCN(CC(=O)N3CCCC3)C2)o1 (stereo not given),-4.28
13,Cc1cccc(OCCNC(=O)CN2CCN(C)CC2C)c1 (stereo not given),25.2
14,CSC(C)C(=O)N(C)CCCc1cc(-c2ccccc2)no1 (stereo not given),27.1
15,CCc1noc(C(C)N2CCN(CCOCC(F)(F)F)CC2)n1 (stereo not given),-2.37
16,Cc1ccc(CC(=O)N2CCCC(c3ccn[nH]3)C2)cn1 (stereo not given),0.114
17,O=C(Nc1cccc(CNCc2cccnc2)c1)C1CCCC1,-4.79
18,CC(c1cccc(Cl)c1)N(C)Cc1nc2c(cnn2C)c(=O)[nH]1 (stereo not given),-1.63
19,COc1ccc(C(C)N(C)Cc2nc3c(cnn3C)c(=O)[nH]2)cc1 (stereo not given),-8.42
20,CNC(=O)NC(=O)C(C)N(C)CCCc1cc(-c2ccccc2)no1 (stereo not given),-1.15
21,COc1cccc(N2CCN(C(=O)CN(C)c3cnccn3)CC2)c1,-1.38
22,O=C(O)c1cc(NS(=O)(=O)c2ccc(Br)s2)c(F)cc1F,1.5
23,O=C1NCCN1C1CCN(CCOc2ccccc2F)CC1,-5.97

row,Compound,cytotoxicity at 70.5 h [%]
1,CCn1ccnc1CN1CCN(Cc2cc(C#N)ccc2F)CC1,-3.57
2,Clc1ccc(CN2CCCC2Cn2cncn2)c2ncccc12 (stereo not given),-2.37
3,CCOC1CCN(C(=O)CN(C)c2cnccn2)CC1,-4.29
4,Cc1ccc(CC(=O)N2CCCC(c3nccs3)C2)cn1 (stereo not given),-4.34
5,CC(C)Oc1ccc(CNC(=O)NCC(C)(C)C(N)=O)cc1F,-5.2
6,CNc1nc(CNC(=O)Nc2ccc([S+](C)[O-])c(F)c2)cs1 (stereo not given),-2.75
7,CC(c1cc(F)ccc1F)N(C)Cc1nc2c(cnn2C)c(=O)[nH]1 (stereo not given),10.4
8,Clc1ccc2cccnc2c1CN1CCCCC1Cn1cncn1 (stereo not given),-4.31
9,CC(=O)N1CCCN(C(=O)NCCNc2ccccn2)CC1,2.71
10,CN(Cc1ccc(N(C)C)cc1)C(=O)c1cc2c([nH]c1=O)CCCC2=O,-4.35
11,Cc1nc(CNC(=O)N(C)Cc2cnn(C)c2)cs1,9.64
12,CC(NC(=O)NCCCn1cncn1)c1ccc2c(c1)CC(=O)N2 (stereo not given),-1.37
13,COCCCNC(=O)CN(C)C(=O)c1ccccc1O,-3.02
14,CC(NC(=O)NCCCn1cncn1)c1ccncc1 (stereo not given),2.26
15,CN(Cc1ccsc1)C(=O)c1cc2c([nH]c1=O)CCC2,-4.53
16,COCCCNC(=O)CN(C)C(=O)c1cc(Cl)ccc1O,0.174
17,Cn1cc(C2CCCN2C(=O)c2ccc(NC3CC3)nc2)cn1 (stereo not given),0.0682
18,CCc1nc(CN2CCCN(C(=O)c3cnc(C)cn3)CC2)cs1,1.16
19,CCc1nc(CN2CCCN(C(=O)c3ccnc(C)n3)CC2)cs1,3.9
20,CNC(=O)c1ccc(C(=O)N2CCCC2c2c(C)nn(C)c2C)cn1 (stereo not given),-4.27
21,O=C(c1cnccn1)N1CCN(Cc2cscn2)CC1,31.3
22,Cc1nn(C)c(C)c1C1CCCN1C(=O)c1ccc(C(N)=O)cn1 (stereo not given),4.05
23,Cc1ncsc1C(=O)NCCNC(=O)c1cccs1,-3.7

row,Compound,cytotoxicity at 70.5 h [%]
1,CC(NC(=O)NCCCn1cccn1)c1ccc2c(c1)OCCCO2 (stereo not given),13.2
2,Cc1cccc(OCCN2CCN(Cc3cnn(CCO)c3)CC2)c1,-1.35
3,Cc1ccc(CNC(=O)CN2CCOC(Cn3cccn3)C2)s1 (stereo not given),-4.52
4,Cc1ccccc1OCCN1CCN(Cc2cnn(CCO)c2)CC1,4.76
5,Cc1csc(N2CCN(CC(=O)N3CCCC3)CC2C)n1 (stereo not given),1.56
6,Cc1ccc(N(CCC#N)C(=O)CN2CCCC2c2ccsc2)cc1 (stereo not given),0.989
7,CN(C)c1ccc(C(=O)N2CCCC2c2noc(C3CC3)n2)nn1 (stereo not given),13.8
8,CCc1nnc2n1CCN(CC(O)c1ccc3c(c1)OCCO3)C2 (stereo not given),23.6
9,CC(C)c1nc(C2CCCN2C(=O)c2ccc(C#N)cn2)no1 (stereo not given),1.98
10,CCC1CCCN(Cc2nc(N)c3ccccc3n2)C1 (stereo not given),4.3
11,CCCc1nc(C)c(C(=O)NCCn2nc3ccccn3c2=O)s1,19.2
12,CCc1nc(C)c(C(=O)NCCn2nc3ccccn3c2=O)s1,-3.88
13,Cc1nc(C(C)C)sc1C(=O)NCCn1nc2ccccn2c1=O,-1.52
14,O=C(NCCn1nc2ccccn2c1=O)c1sccc1-c1ccccc1,-5.5
15,CCc1ccsc1C(=O)NCCn1nc2ccccn2c1=O,-5.41
16,CC1CN(CC(=O)Nc2ccncc2)CCN1Cc1nccn1C (stereo not given),-0.423
17,CC1CN(CC(=O)N2CCOCC2)CCN1Cc1nccn1C (stereo not given),-2.16
18,CC1CN(CC(=O)NC2CCOCC2)CCN1Cc1nccn1C (stereo not given),-0.539
19,c1nc(N2CCCC2Cn2cncn2)c2sccc2n1 (stereo not given),-4.84
20,c1ccc2oc(CN3CCCC(Cn4cncn4)C3)nc2c1 (stereo not given),-1.69
21,CN(C)CCn1c(=O)n(C)c(=O)c2ccccc21,18.7
22,CC(C)n1c(=O)c2ccccc2n(CCCN(C)C)c1=O,-12.5
23,O=C(Nc1cccc(CNCc2cccs2)c1)C1CC1,-8.51

# Source: ChEMBL document CHEMBL3507680, “University of Dundee, Gates Library screen for HepG2 cell viability”
